The text below walks through data of US20210196674A1, “Therapeutics for Malaria” (priority 2015, published 2021).

Where two headings read alike, the source gives them in different places. Where only a bound is given, the exact number is not on record here.

Broadly, the half-life is how long it takes for the measured level to halve.

The test system of data set [1] is malaria (P. falciparum) infection. Briefly: Clinical trials in Haiti: 16-day low-dose Artemisinin with or without Citrus bioflavonoid. The format is in vivo, human. As to conditions: single 16-day treatment; daily Artemisinin: babies 25 mg, children 2-12 years 50 mg, adults 100 mg; n=17.
Protocol: In one example, patients in Haiti with non-complicated and complicated malaria (P. falciparum) infection were recruited to test the efficacy of peroxybioflavonoid treatment. The treated patient population included infants (n=7), children under age 18 (n>100), and adults (n>75).
Each day, babies were given 25 mg, children 2-12 years old received 50 mg and adults 100 mg of Artemisinin (low-dose Artemisinin). In some patients, Artemisinin was given alone. In other patients, the Artemisinin was combined with Citrus bioflavonoid (peroxybioflavonoid). Patients were treated for 16 days.
For data set [2] the following is noted: in vivo, cited from earlier work; for half-life in the blood: po.
Another data set relates to Staphylococcus aureus. The note with it: cited from earlier work; for growth inhibitory action: alone; for effect with berberine against Staphylococcus aureus: combination with berberine, attributed to inhibition of MDR pump.
Another data set deals with Plasmodium berghei. As to conditions: curcumin orally 100 mg/kg in combination with Artemisinin at 0.75 and 1.5 mg/mouse; cited from earlier work.
In another data set the test system is Plasmodium falciparum. The note with it: cited from earlier work; for antimalarial effect: alone, catechins from a crude green tea extract; for effect on Artemisinin activity in vitro: combination with Artemisinin.
The conditions of data set [3]: after consumption of 200 mg of naringenin, present in grapefruit juice; cited from earlier work.
For data set [4] the following is noted: lambs; cited from earlier work.

As to `C[C@@H]1CC[C@H]2[C@@H](C)C(=O)O[C@@H]3O[C@@]4(C)CC[C@@H]1[C@]32OO4` [Artemisinin], the “remained free of malaria post-treatment” value in data set [1] is “up to nine”. In addition, the half-life result in data set [2] is on record as “very short”.

In the case of `CCO[C@H]1O[C@@H]2O[C@@]3(C)CC[C@H]4[C@H](C)CC[C@@H]([C@H]1C)[C@@]24OO3` [arteether], the half-life in data set [2] (im) was 7 to 9 h. For the same compound, the “half-life in the blood” value in data set [2] is 1 to 2 h.

With `C[C@H]1[C@H](OC(=O)CCC(=O)O)O[C@@H]2O[C@@]3(C)CC[C@H]4[C@H](C)CC[C@@H]1[C@@]24OO3` [artesunate], the half-life in data set [2] (im) was 7 to 9 h. The “half-life in the blood” value in data set [2] was 1 to 2 h.

Turning to `COc1cc(-c2oc3cc(OC)c(OC)c(O)c3c(=O)c2OC)ccc1O` [chrysoplenetin], in the data set on Staphylococcus aureus, the growth inhibitory action result is listed as “very weak” and the “effect with berberine against Staphylococcus aureus” value is “synergistic effect”.

As for `COc1cc2oc(-c3ccc(O)c(O)c3)c(OC)c(=O)c2c(O)c1OC` [chrysosplenol-D], in the data set with Staphylococcus aureus, the growth inhibitory action result is “very weak” and the “effect with berberine against Staphylococcus aureus” value is on record as “synergistic effect”.

Take `COc1cc(/C=C/C(=O)CC(=O)/C=C/c2ccc(O)c(OC)c2)ccc1O` [curcumin]: the “survival rate of infected mice” value in the data set with Plasmodium berghei is “increased survival rate”.

Turning to `O=C(O[C@@H]1Cc2c(O)cc(O)cc2O[C@@H]1c1cc(O)c(O)c(O)c1)c1cc(O)c(O)c(O)c1` [epigallocatechin gallate], in the data set with Plasmodium falciparum, the antimalarial effect result was “antimalarial effects of their own” and the “effect on Artemisinin activity in vitro” value is “potentiate the effects of Artemisinin”.

Consider `O=C1C[C@@H](c2ccc(O)cc2)Oc2cc(O)cc(O)c21` [naringenin], for which the plasma concentrations in data set [3] is at most 6.0 µM.

For `O=c1c(O)c(-c2ccc(O)c(O)c2)oc2cc(O)cc(O)c12` [quercetin], in data set [4], the bioavailability of moxidectin entry is listed as “increase the bioavailability”.

With catechin gallate, in the data set with Plasmodium falciparum, the antimalarial effect entry is “antimalarial effects of their own” and the “effect on Artemisinin activity in vitro” value is given as “potentiate the effects of Artemisinin”.
